Columns and labels:
[1] = test system: hematopoietic recovery after cyclophosphamide; test: Hematopoietic recovery after cyclophosphamide, acyl chain length (Example 38); assay type: in vivo, Balb/C mice; details: day 7; guanosine 5, acyl derivatives 2.5 μmoles/mouse/day i.p.
Protocol: Cyclophosphamide (CP) (275 mg/kg, i.p.) was administered to 70 Balb/C female mice weighing approximately 20 grams each. Twenty-four hours later and each day thereafter for a total of 6 days, mice were given a 0.4 ml i.p injection of either physiological saline (controls), Tween 80 (0.2%), guanosine (5 μmoles/mouse/day in 0.2% Tween 80), or 2.5 μmoles per mouse per day of one of the following acylated derivatives of guanosine in 0.2% Tween 80: triacetylguanosine, octanoylguanosine, lauroylguanosine, or palmitoylguanosine. On day 7 following CP administration all 10 animals from each of the 7 groups were bled, and then sacrificed by cervical dislocation. Spleens were removed and weighed, and complete blood counts performed.

[2] = test system: hematopoietic recovery after cyclophosphamide; test: Histological examination of spleens and blood counts after cyclophosphamide (Example 46); assay type: in vivo, Balb/C mice; details: day 7
Protocol: Cyclophosphamide (CP) (275 mg/kg, i.p.) was administered to 30 Balb/C female mice weighing approximately 20 grams each. Twenty-four hours later and each day thereafter for a total of 6 days, mice were given a 0.4 ml i.p. injection of either physiological saline (controls), Tween 80 (0.5%), or octanoylguanosine (5.0 μmoles/mouse/day in 0.5% Tween 80). On day 7 following CP administration all 10 animals from each of the 3 groups were bled and then sacrificed by cervical dislocation. Spleens were removed, weighed, and fixed in 10% formalin for later histological examination. Complete blood cell counts were performed on the collected blood.

[3] = test system: hematopoietic recovery after cyclophosphamide; test: Surfactants, hematopoietic recovery after cyclophosphamide (Example 58); assay type: in vivo, Balb/C mice; details: day 7
Protocol: Twenty-four hours later and each day thereafter for a total of 6 days, mice were divided into seven groups and given a 0.4 ml i.p. injection of either physiological saline (controls), Tween 80 at each of three concentrations (0.02%, 0.2% and 1%) or octanoylguanosine (50 mg/kg/dose) in three different concentrations of Tween 80 (0.02%, 0.2% and 1%). On day 7 following CP administration all 9 animals from each of the […] were bled and then sacrificed by cervical dislocation. Spleens were removed and weighed, and complete blood cell counts performed.

[4] = test system: hematopoietic recovery after cyclophosphamide; test: Dose-response, hematopoietic recovery after cyclophosphamide (Example 45); assay type: in vivo, Balb/C mice
Protocol: Cyclophosphamide (CP) (275 mg/kg, i.p.) was administered to 45 Balb/C female mice weighing approximately 20 grams each. Twenty-four hours later and each day thereafter for a total of 6 days, mice were given a 0.4 ml i.p. injection of either physiological saline (controls), Tween 80 (0.5%), or one of three different doses of octanoylguanosine ([…]). On day 7 following CP administration all 9 animals from each of the […] were bled and then sacrificed by cervical dislocation. Spleens were removed and weighed, and complete blood cell counts performed.

[5] = test system: human myeloid leukemia cell line (HL-60); details: HL-60 with inducing agents; cited from earlier work
[6] = test system: hematopoietic recovery after cyclophosphamide; test: Hematopoietic recovery after cyclophosphamide (Example 37); assay type: in vivo, Balb/C mice; details: 5 μmoles/mouse/day i.p. 6 days; day 7; vs saline
Protocol: Twenty-four hours later and each day thereafter for a total of 6 days, mice were given a 0.4 ml i.p. injection of either physiological saline (controls), guanine (5 μmoles/mouse/day), or guanosine (5 μmoles/mouse/day). On day 7 all 10 mice in each of the three groups were bled, and then sacrificed by cervical dislocation. Spleens were removed and weighed, and complete blood cell counts performed.

leukocytes = details: 100 mg i.p.; after 10 hours and for 24 hours thereafter; cited from earlier work
[7] = test system: hematopoietic recovery after cyclophosphamide; test: Hematopoietic recovery after cyclophosphamide (Example 59); assay type: in vivo, Balb/C mice; details: days 5 and 7; 25 mg/kg/day i.p.
Protocol: Cyclophosphamide (CP) (275 mg/kg, i.p.) was administered to 28 Balb/C female mice weighing approximately 20 grams each. Twenty-four hours later and each day for 4 days thereafter, mice were given a 0.4 ml i.p. injection of either physiological saline (controls) or palmitoyl-8-aminoguanosine (25 mg/kg/day in 0.2% Tween 80). On days 5 and 7 following CP administration 7 animals from each of the 2 groups were bled and then were sacrificed by cervical dislocation. Spleens were removed and weighed, and complete blood cell counts performed.

[8] = test system: Interleukin-3 dependent bone marrow cells; details: 10 micrograms per milliliter
Protocol: Bone marrow cells were obtained by flushing the femurs of three male B6D2F1 mice. The cells were plated at 5.0×10^5 /ml in MEM plus 10% fetal calf serum and 25 Units/ml of recombinant IL-3 for 24-48 hours. Non-adherent cells were then separated from adherent cells and maintained for an additional twelve days. IL-3 was washed from cells, and cells were plated in MEM plus 10% fetal calf serum in the presence or absence of IL-3 and with or without the addition of palmitoyldeoxyguanosine (10 micrograms per milliliter) or deoxyguanosine (10 micrograms per milliliter). Cells were counted using the trypan blue exclusion method, and the percent of dead cells (trypan blue positive) was determined at 24, 40, 60 and 84 hours following the wash.

[9] = test system: hematopoietic recovery after cyclophosphamide; test: Recovery of blood cell counts in rats after cyclophosphamide (Example 55); assay type: in vivo, F344 rats
Protocol: Cyclophosphamide (CP) (40 mg/kg, i.p.) was administered to 16 F344 male rats weighing approximately 200 grams each. Twenty-four hours later and each day thereafter rats were given a 0.5 ml i.p. injection of either physiological saline (controls), or palmitoyldeoxyguanosine at a dose of […]. On days 5, 7 and 10 following CP administration all 8 animals from both groups were bled and complete blood cell counts performed. On day 10 all of the rats were sacrificed and their spleens removed and weighed.

[10] = test system: hematopoiesis in normal mice; test: Hematopoiesis in normal mice (Example 56); assay type: in vivo, Balb/C mice; details: day 5, 2.6 μmoles/mouse, 4 days
Protocol: Normal Balb/C female mice weighing approximately 20 grams each were given a daily 0.4 ml i.p. injection of either physiological saline (controls), palmitoylguanosine (2.6 μmoles/mouse), palmitoyldeoxyguanosine (2.6 μmoles/mouse), monopalmitoylguanosine 2',3'-acyclic dialcohol (2.6 μmoles/mouse), and palmitoyl-8-bromoguanosine (2.6 μmoles/mouse) for 4 days. On the fifth day all 3 animals in each of the 5 groups were bled and then sacrificed by cervical dislocation. Spleens were removed and weighed, and complete blood cell counts performed. Femoral bone marrow from each mouse was collected and a differential cell count performed on marrow smears.

[11] = test system: hematopoietic recovery from fluorouracil; test: Pretreatment, hematopoietic recovery from fluorouracil (Example 57); assay type: in vivo, Balb/C mice
Protocol: Twenty-eight female Balb/C mice weighing approximately 20 grams each received a 0.4 ml i.p. injection of either physiological saline (controls), or palmitoyldeoxyguanosine (1 μmole/mouse) daily for three days. On the fourth day 5-flourouracil (5-FU) (150 mg/kg, i.p.) was administered to all 28 of the animals. On days 5, 8 and 11 following 5-FU administration 4 (day 5) or 5 (days 8 and 11) animals from both groups were bled and then sacrificed by cervical dislocation. Spleens were removed and weighed, and complete blood cell counts performed.

[12] = test system: hematopoietic recovery after cyclophosphamide; test: Dose-response, hematopoietic recovery after cyclophosphamide (Example 54); assay type: in vivo, Balb/C mice
Protocol: (§1) Cyclophosphamide (CP) (275 mg/kg, i.p.) was administered to 112 Balb/C female mice weighing approximately 20 grams each. Twenty-four hours later and each day thereafter mice were given a 0.4 ml i.p. injection of either physiological saline (controls), or palmitoyldeoxyguanosine at one of six different doses: 0.04, 0.08, 0.2, 0.4, 0.6 or 0.8 μmoles/mouse. On days 5 and 7 following CP administration 8 animals from each of the 7 groups were bled and then sacrificed by cervical dislocation. Spleens were removed and weighed, and complete blood cell counts performed.

[13] = test system: hematopoietic recovery after cyclophosphamide; test: Comparative dose-response, hematopoietic recovery after cyclophosphamide (Example 53); assay type: in vivo, Balb/C mice
Protocol: as §1, with “to 96” for “to 112”, “(controls), palmitoylguanosine at one of four different doses: 0.2, 0.4, 1.0 or 2.0 μmoles/mouse),” for “(controls),”, “at a dose” for “at one”, “of 1.0” for “of six different doses: 0.04, 0.08, 0.2, 0.4, 0.6 or 0.8”, “the 6” for “the 7”

[14] = test system: hematopoietic recovery after cyclophosphamide; test: Hematopoietic recovery after cyclophosphamide (Example 51); assay type: in vivo, Balb/C mice; details: day 5; 2 μmoles/mouse
Protocol: Cyclophosphamide (CP) (275 mg/kg, i.p.) was administered to 88 Balb/C female mice weighing approximately 20 grams each. Twenty-four hours later and each day thereafter mice were given a 0.4 ml i.p. injection of either Tween-80 (0.2%) (controls), 3'-O-palmitoyldeoxyguanosine (2 μmoles/mouse), butyryldeoxyguanosine (2 μmoles/mouse), palmitoyl-N-isobutyryldeoxyguanosine (2 μmoles/mouse), lauryldeoxyguanosine (2 μmoles/mouse), octanoyldeoxyguanosine (2 μmoles/mouse), and palmitoyldeoxyguanosine (2 μmoles/mouse). On days 5 and 7 following CP administration 6 or 7 animals in each of the 7 groups were bled and then sacrificed by cervical dislocation. Spleens were removed and weighed, and complete blood cell counts performed.

[15] = test system: hematopoietic recovery after cyclophosphamide; test: Dose-response, hematopoietic recovery after cyclophosphamide (Example 52); assay type: in vivo, Balb/C mice; details: days 5 and 7; 0.2-2.0 μmoles/mouse, except 0.2 on day 5
Protocol: Cyclophosphamide (CP) (275 mg/kg, i.p.) was administered to 85 Balb/C female mice weighing approximately 20 grams each. Twenty-four hours later and each day thereafter mice were given a 0.4 ml i.p. injection of either physiological saline (controls), or palmitoyldeoxyguanosine at one of four different doses: 0.2, 0.4, 1.0 or 2.0 μmoles/mouse). On days 5 and 7 following CP administration 9 and 8 animals, respectively, in each of the 5 groups were bled and then sacrificed by cervical dislocation. Spleens were removed and weighed, and complete blood cell counts performed.

[16] = day 5, palmitoylguanosine 2.0, palmitoyldeoxyguanosine 1.0 μmoles/mouse
[17] = day 7, palmitoylguanosine 1.0 and 2.0, palmitoyldeoxyguanosine 1.0 μmoles/mouse

CCCCCCCC(=O)OC[C@H]1O[C@@H](n2cnc3c(=O)[nH]c(N)nc32)[C@H](O)[C@@H]1O
spleen weight [1]: significantly larger spleens | spleen weight ([2]; Tween 80 0.5%, octanoylguanosine 5.0 μmoles/mouse/day): significantly greater | Neutrophils ([2]; vs control or Tween 80): significantly greater numbers | peripheral white blood cells (WBC) ([2]; vs control or Tween 80): significantly greater numbers | histological examination of spleens ([2]; vs saline and Tween 80): much greater lymphopoiesis (increased white pulp) and myelopoiesis (increased red pulp) | neutrophil counts ([3]; 50 mg/kg in 0.02% and 0.2% Tween 80, vs saline): significantly different from controls | neutrophil counts ([3]; 50 mg/kg in 0.2% vs in 0.02% Tween 80): significantly higher | spleen weight ([4]; day 7, 0.5, 2.5 or 5 μmoles/mouse/day, vs controls and Tween 80): significantly larger spleens | spleen size ([4]; day 7, highest dose (10 μmoles)): largest spleens | total number of leukocytes ([4]; day 7, vs control): significantly increased above control values in a dose-dependent manner | total number of neutrophils ([4]; day 7, vs control): significantly increased above control values in a dose-dependent manner | accelerating regeneration of hematopoiesis ([4]; middle dose 2.5 μmoles): nearly as effective as the highest dose

Nc1nc2c(ncn2[C@@H]2O[C@H](CO)[C@@H](O)[C@H]2O)c(=O)[nH]1 [guanosine]
spleen weight [1]: No significant difference | effect on induced maturation of HL-60 cells [5]: prevented their induced maturation into functional neutrophils | Neutrophils [6]: significantly more | spleen weight [6]: significantly heavier spleens | total white blood cells [6]: significantly more | leukocyte counts, leukocytosis (leukocytes): 11,000 per mm^3

CCCCCCCCCCCCCCCC(=O)OC[C@H]1O[C@@H](n2c(N)nc3c(=O)[nH]c(N)nc32)[C@H](O)[C@@H]1O [palmitoyl-8-aminoguanosine]
Neutrophils [7]: significantly elevated | spleen weight [7]: significantly elevated

CCCCCCCCCCCCCCCC(=O)OC[C@H]1O[C@@H](n2cnc3c(=O)[nH]c(N)nc32)C[C@@H]1O [palmitoyldeoxyguanosine]
prevention of apoptotic cell death due to IL-3 deprivation [8]: significantly reduced the percentage of dead cells | Lymphocytes ([9]; day 10, i.p.): significantly elevated | Platelets ([9]; day 10, i.p.): significantly elevated | spleen weight ([9]; day 10, i.p.): significantly elevated | total neutrophil counts ([9]; days 5, 7 and 10, i.p.): significantly elevated | white blood cell counts ([9]; days 5, 7 and 10, i.p.): significantly elevated | spleen weight [10]: significantly elevated | number of myelocytes ([10]; femoral bone marrow): significantly greater | platelet counts ([11]; day 5, 1 μmole/mouse, 3 days before 5-FU): significantly elevated | platelet counts ([11]; day 8): significantly higher | spleen weight ([11]; day 8): significantly higher | total neutrophil counts ([11]; day 8): significantly higher | lymphocyte counts ([11]; day 11): significantly higher | platelet counts ([11]; day 11): significantly higher | spleen weights ([11]; day 11): significantly higher | total neutrophil counts ([11]; day 11): significantly higher | total white blood cell counts ([11]; day 11): significantly higher | spleen weight ([12]; day 5, 0.2 μmoles/mouse or greater): significantly elevated | white blood cell counts ([12]; day 5, 0.4 μmoles/mouse or greater): significantly elevated | white blood cell counts ([12]; day 7, all doses): statistically significant differences were seen at all doses | spleen weight ([12]; day 7, all doses except 0.04 μmoles/mouse): significantly elevated | total neutrophil counts ([12]; days 5 and 7, all 6 doses): significantly elevated | spleen weight [13, 16]: significantly elevated | total neutrophil counts [13, 16]: significantly elevated | white blood cell counts [13, 16]: significantly elevated | spleen weight [13, 17]: significantly elevated | total neutrophil counts [13, 17]: significantly elevated | white blood cell counts [13, 17]: significantly elevated | relative potency in elevating spleen weight and cell counts ([13]; vs palmitoylguanosine): more potent in elevating these parameters than the same or even a 2-fold greater dose of palmitoylguanosine | spleen weight [14]: significantly elevated | total neutrophil counts [14]: significantly elevated | white blood cell counts [14]: significantly elevated | spleen weight [15]: significantly elevated | total neutrophil counts [15]: significantly elevated | white blood cell counts [15]: significantly elevated

— patent publication US6054441A, “Oxypurine nucleosides and their congeners, and acyl derivatives thereof, for improvement of hematopoiesis” (priority 1995, dated 2000)
